Experimental data reported in publication PMC3782081 (Cell, 2012).

Experiments:
Assay type in all cases: cell-based
[1] = target: T1, UCP1 (uncoupling protein 1) (Mus musculus, UniProt P12242); experiment: whole-mitoplast patch-clamp, inhibition by […] GDP in the bath
T1 sequence (P12242 1-307): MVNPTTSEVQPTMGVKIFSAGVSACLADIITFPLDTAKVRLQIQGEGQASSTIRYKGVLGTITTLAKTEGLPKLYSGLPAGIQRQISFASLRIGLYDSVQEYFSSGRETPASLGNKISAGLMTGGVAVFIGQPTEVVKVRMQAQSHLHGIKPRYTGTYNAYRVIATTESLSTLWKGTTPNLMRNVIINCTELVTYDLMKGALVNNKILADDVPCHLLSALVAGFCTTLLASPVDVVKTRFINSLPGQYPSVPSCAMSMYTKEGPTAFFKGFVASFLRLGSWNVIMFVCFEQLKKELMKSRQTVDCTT

[2] = target: T1, UCP1 (uncoupling protein 1); experiment: whole-mitoplast patch-clamp, inhibition by […] in the bath; conditions: read-out: % inhibition at 4 μM
[3] = target: T1, UCP1 (uncoupling protein 1); experiment: whole-mitoplast patch-clamp, inhibition of IUCP1 reactivated with exogenous OA; conditions: read-out: % inhibition at 50 μM

For Nc1nc2c(ncn2[C@@H]2O[C@H](COP(=O)(O)OP(=O)(O)O)[C@@H](O)[C@H]2O)c(=O)[nH]1 [GDP], the “whole-mitoplast patch-clamp, inhibition by 1 mM GDP in the bath” value [1] was “elicited a large-amplitude current that was strongly inhibited by the classic UCP1 inhibitor GDP (Figure 1B)”.

CCCCCCCC/C=C\CCCCCCCC(=O)SCCNC(=O)CCNC(=O)[C@H](O)C(C)(C)COP(=O)(O)OP(=O)(O)OC[C@H]1O[C@@H](n2cnc3c(N)ncnc32)[C@H](O)[C@@H]1OP(=O)(O)O [oleoyl-CoA] was tested, and the inhibition at 4 µM [2] was 92%.

In the case of O=C1NC(=O)/C(=C/c2ccc(C(=O)NC[C@@H]3C[C@@H](SC(c4ccccc4)(c4ccccc4)c4ccccc4)CN3C(=O)c3ccccc3C(=O)c3ccc(F)cc3F)cc2)S1 [pyrrophenone], the inhibition at 50 µM [3] is reported as 77%.
